{"source": "paper PMC8171062", "about": "“Crystallographic fragment screening-based study of a novel FAD-dependent oxidoreductase from Chaetomium thermophilum” (Acta Crystallographica. Section D, Structural Biology, 2021)", "test_in_all_cases": "X-ray crystal structure, […] A, soaking", "assay_type_in_all_cases": "binding", "key": {"CtFDO (CtFDOdegl) [1]": {"target": "T1, CtFDO (CtFDOdegl) (Thermochaetoides thermophila, UniProt G0SAW6)", "T1 construct": "gene CTHT_0048040; secreted from Aspergillus oryzae, no tag mentioned; signal peptide (21), next 20 N-terminal and 8 C-terminal residues absent; 595 residues by LC-MS/MS; endoglycosidase F1 deglycosylated; about 68 kDa; monomer", "conditions": "20 mM MgCl2; two molecules per chain, subsites S1 and S3; occupancy 0.7-0.8; formic acid in catalytic site"}, "CtFDO (CtFDOdegl) [2]": {"target": "T1, CtFDO (CtFDOdegl)", "conditions": "crystals at pH 5.5; catalytic site; occupancy 1.0; formic acid in S1"}, "CtFDO (CtFDOdegl) [3]": {"target": "T1, CtFDO (CtFDOdegl)", "conditions": "crystals at pH 5.5; thiophene in subsite S2, aliphatic moiety in catalytic site; occupancy 0.9; formic acid in S1"}}, "data": [{"smiles": "O=[N+]([O-])c1ccc(O)c(O)c1", "note": "[4NC, 4-nitrocatechol]", "values": [{"measurement": "X-ray crystal structure, 1.26 A, soaking", "setting": "CtFDO (CtFDOdegl) [1]", "value": "both CtFDOdegl chains bind two molecules of 4NC"}]}, {"smiles": "COC(=O)c1ccc(CN)cc1", "note": "[MAMB, methyl-4-(aminomethyl)benzoate]", "values": [{"measurement": "X-ray crystal structure, 2.22 A, soaking", "setting": "CtFDO (CtFDOdegl) [2]", "value": "CtFDOdegl binds one MAMB molecule in the CS"}]}, {"smiles": "C[C@H](NC(=O)CCC(=O)c1cccs1)c1cccnc1", "note": "[PESB, 4-oxo-N-[(1S)-1-(pyridin-3-yl)ethyl]-4-(thiophen-2-yl)butanamide]", "values": [{"measurement": "X-ray crystal structure, 1.60 A, soaking", "setting": "CtFDO (CtFDOdegl) [3]", "value": "each protein chain binds one PESB molecule"}]}]}
